{
  "source": "patent US5456247A",
  "about": "“Method for delivering drugs soluble in a vaporization vehicle” (priority 1993, dated 1995)",
  "key": {"in vivo [1]": {"experiment": "in vivo", "details": "rat, inhaled or intranasal", "experimental": "Tests were conducted to study the entry of sulfa drugs into the blood and lungs of test subjects. […] Rats were placed in the treatment chamber 9. […] An air pump was used to circulate air through the volatile chamber 10 to the treatment chamber. The rats' condition, temperature of the flask and vapor flow into the treatment chamber 9 were monitored. After three minutes of inhalation therapy the air flow was shut off and the rats were removed from treatment chamber 9. Blood and lung tissue were removed for testing."}, "[2]": {"details": "rat, in vivo, inhaled or intranasal, 0.05 h", "experimental": "Tests were conducted to study the entry of sulfa drugs into the blood and lungs of test subjects. […] Samples of sulfamethazine and menthol (0.285 grams equal portions of each) were weighed and heated at 180° C. in a distillation flask in the volatile chamber. Rats were placed in the treatment chamber 9. […] An air pump was used to circulate air through the volatile chamber 10 to the treatment chamber. The rats' condition, temperature of the flask and vapor flow into the treatment chamber 9 were monitored. After three minutes of inhalation therapy the air flow was shut off and the rats were removed from treatment chamber 9. Blood and lung tissue were removed for testing."}, "[3]": {"details": "in vivo", "procedure": "(§1) The levels that were taken orally were administered for a period of time on the order of days, while inhalation treatments were for a period of time on the order of minutes in length (five minutes)."}, "in vivo [4]": {"experiment": "in vivo", "details": "inhaled or intranasal", "procedure": "as §1"}, "bordetella avium": {"system": "bordetella avium", "details": "turkeys; route not stated; cited from earlier work"}, "[5]": {"experiment": "Volatilization of drugs with a vaporization vehicle", "assay_type": "physicochemical", "details": "menthol as vaporization vehicle", "text": "The amount of vaporization vehicle depends on which drug is delivered. […] Other potential vaporization vehicles include carvone, menthone and camphor."}},
  "note": "Read-outs that look alike come from different tables or passages of the source.",
  "data": [
    {"compound": "Cc1cc(C)nc(NS(=O)(=O)c2ccc(N)cc2)n1", "note": "[sulfamethazine]", "values": [
      {"measurement": "Lungs: sulfamethazine level", "setting": "in vivo [1]; 0.05 h", "result": "~ 0.1 ppm"},
      {"measurement": "concentration at 0.05 h", "setting": "in vivo [1]; Lungs: sulfamethazine level", "result": "~100", "unit": "ng/g"},
      {"measurement": "Lungs: sulfamethazine level", "setting": "[2]", "result": 50, "unit": "ppb"},
      {"measurement": "sulfamethazine level in lung tissue, inhalation, immediate", "setting": "[3]; 0 min", "result": 0.2, "unit": "ppm"},
      {"measurement": "sulfamethazine level in lung tissue, oral", "setting": "[3]; po", "result": 0.1, "unit": "ppm"},
      {"measurement": "concentration at 25 min", "setting": "in vivo [4]", "result": 100, "unit": "ng/g"}
    ]},
    {"compound": "Cc1cc(NS(=O)(=O)c2ccc(N)cc2)no1", "note": "[sulfamethoxazole]", "values": [
      {"measurement": "success at treating bordetella avium disease", "setting": "bordetella avium", "result": "successful at treating the disease"}
    ]},
    {"compound": "gentamicin", "values": [
      {"measurement": "need for menthol for volatilization", "setting": "[5]", "result": "can be volatilized with little or no menthol"},
      {"measurement": "success at treating bordetella avium disease", "setting": "bordetella avium", "result": "successful at treating the disease"}
    ]}
  ]
}
